Experimental data as given in PubChem BioAssay (NCI).
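In this assay, cells in 96-well plates receive the compound at five concentrations for 48 hours. Endpoints are linearly interpolated between the surrounding concentrations. GI50 is the concentration that inhibits growth by half. Definition used: TGI = concentration required for complete inhibition of growth.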

Legend:
Assay in all cases: inhibition of tumour cell growth, NCI panel, 48 h; in the data active means GI50 below about 0.43 µM; inactive means the rest
786-0 renal = test system: 786-0 renal
COLO 205 colon = test system: COLO 205 colon
DU-145 prostate = test system: DU-145 prostate
PC-3 prostate = test system: PC-3 prostate
KM12 colon = test system: KM12 colon
NCI-H226 lung = test system: NCI-H226 lung
U251 CNS = test system: U251 CNS
EKVX NSCLC = test system: EKVX NSCLC
OVCAR-5 ovarian = test system: OVCAR-5 ovarian
NCI-H460 lung = test system: NCI-H460 lung
UACC-62 melanoma = test system: UACC-62 melanoma
HL-60(TB) leukemia = test system: HL-60(TB) leukemia
HT29 colon = test system: HT29 colon
OVCAR-8 ovarian = test system: OVCAR-8 ovarian
SK-MEL-2 melanoma = test system: SK-MEL-2 melanoma
ACHN renal = test system: ACHN renal
SNB-75 CNS = test system: SNB-75 CNS
TK-10 renal = test system: TK-10 renal
SN12C renal = test system: SN12C renal
K-562 leukemia = test system: K-562 leukemia
OVCAR-4 ovarian = test system: OVCAR-4 ovarian
T-47D breast = test system: T-47D breast
SF-539 CNS = test system: SF-539 CNS
CAKI-1 renal = test system: CAKI-1 renal
NCI-H23 lung = test system: NCI-H23 lung
SW-620 colon = test system: SW-620 colon
RXF 393 renal = test system: RXF 393 renal
MDA-MB-231 breast = test system: MDA-MB-231 breast
NCI/ADR-RES ovarian = test system: NCI/ADR-RES ovarian
UACC-257 melanoma = test system: UACC-257 melanoma
CCRF-CEM leukemia = test system: CCRF-CEM leukemia
NCI-H522 lung = test system: NCI-H522 lung
HCT-116 colon = test system: HCT-116 colon
IGROV1 ovarian = test system: IGROV1 ovarian
SK-MEL-5 melanoma = test system: SK-MEL-5 melanoma
SNB-19 CNS = test system: SNB-19 CNS
MALME-3M melanoma = test system: MALME-3M melanoma
MOLT-4 leukemia = test system: MOLT-4 leukemia
SK-OV-3 ovarian = test system: SK-OV-3 ovarian
BT-549 breast = test system: BT-549 breast
HS 578T breast = test system: HS 578T breast
SR leukemia = test system: SR leukemia
SK-MEL-28 melanoma = test system: SK-MEL-28 melanoma
HOP-92 NSCLC = test system: HOP-92 NSCLC
HCC-2998 colon = test system: HCC-2998 colon
MCF7 breast = test system: MCF7 breast
A549 NSCLC = test system: A549 NSCLC
HOP-62 NSCLC = test system: HOP-62 NSCLC
LOX IMVI melanoma = test system: LOX IMVI melanoma
HCT-15 colon = test system: HCT-15 colon
UO-31 renal = test system: UO-31 renal
A498 renal = test system: A498 renal
SF-268 CNS = test system: SF-268 CNS
SF-295 CNS = test system: SF-295 CNS
RPMI-8226 leukemia = test system: RPMI-8226 leukemia

COc1ccc(Cc2cnc(NC(=O)c3sc4ccccc4c3Cl)s2)cc1
active: GI50 (COLO 205 colon) 390 nM | GI50 (DU-145 prostate) 370 nM | GI50 (PC-3 prostate) 405 nM | GI50 (KM12 colon) 383 nM | GI50 (U251 CNS) 382 nM | GI50 (NCI-H460 lung) 365 nM | GI50 (HL-60(TB) leukemia) 256 nM | GI50 (HT29 colon) 370 nM | GI50 (SNB-75 CNS) 200 nM | GI50 (K-562 leukemia) 289 nM | GI50 (SF-539 CNS) 236 nM | GI50 (SW-620 colon) 409 nM | GI50 (RXF 393 renal) 179 nM | GI50 (NCI/ADR-RES ovarian) 342 nM | GI50 (CCRF-CEM leukemia) 402 nM | GI50 (NCI-H522 lung) 279 nM | GI50 (HCT-116 colon) 408 nM | GI50 (SK-MEL-5 melanoma) 335 nM | GI50 (HS 578T breast) 336 nM | GI50 (SR leukemia) 310 nM | GI50 (MCF7 breast) 355 nM | GI50 (HCT-15 colon) 378 nM | GI50 (A498 renal) 222 nM | GI50 (SF-295 CNS) 383 nM
3560 nM: TGI (SK-MEL-5 melanoma)
> 100000 nM: TGI (786-0 renal) | TGI (DU-145 prostate) | TGI (PC-3 prostate) | TGI (KM12 colon) | TGI (NCI-H226 lung) | TGI (U251 CNS) | TGI (EKVX NSCLC) | TGI (OVCAR-5 ovarian) | TGI (NCI-H460 lung) | TGI (UACC-62 melanoma) | TGI (HT29 colon) | TGI (OVCAR-8 ovarian) | TGI (SK-MEL-2 melanoma) | TGI (ACHN renal) | TGI (SNB-75 CNS) | TGI (TK-10 renal) | TGI (SN12C renal) | TGI (K-562 leukemia) | TGI (OVCAR-4 ovarian) | TGI (T-47D breast) | TGI (CAKI-1 renal) | TGI (NCI-H23 lung) | TGI (SW-620 colon) | TGI (MDA-MB-231 breast) | TGI (NCI/ADR-RES ovarian) | TGI (UACC-257 melanoma) | TGI (CCRF-CEM leukemia) | TGI (HCT-116 colon) | TGI (IGROV1 ovarian) | TGI (SNB-19 CNS) | TGI (MALME-3M melanoma) | TGI (MOLT-4 leukemia) | TGI (SK-OV-3 ovarian) | TGI (BT-549 breast) | TGI (HS 578T breast) | TGI (SR leukemia) | TGI (SK-MEL-28 melanoma) | TGI (HOP-92 NSCLC) | TGI (HCC-2998 colon) | TGI (MCF7 breast) | TGI (A549 NSCLC) | TGI (HOP-62 NSCLC) | TGI (LOX IMVI melanoma) | TGI (HCT-15 colon) | TGI (UO-31 renal) | TGI (SF-268 CNS) | TGI (SF-295 CNS)
12700 nM: TGI (A498 renal)
13300 nM: TGI (COLO 205 colon)
inactive: GI50 (786-0 renal) 652 nM | GI50 (NCI-H226 lung) 1430 nM | GI50 (EKVX NSCLC) 480 nM | GI50 (OVCAR-5 ovarian) 587 nM | GI50 (UACC-62 melanoma) 468 nM | GI50 (OVCAR-8 ovarian) 508 nM | GI50 (SK-MEL-2 melanoma) 703 nM | GI50 (ACHN renal) 808 nM | GI50 (TK-10 renal) 4310 nM | GI50 (SN12C renal) 687 nM | GI50 (OVCAR-4 ovarian) 2820 nM | GI50 (T-47D breast) 768 nM | GI50 (CAKI-1 renal) 487 nM | GI50 (NCI-H23 lung) 647 nM | GI50 (MDA-MB-231 breast) 585 nM | GI50 (UACC-257 melanoma) 25700 nM | GI50 (IGROV1 ovarian) 608 nM | GI50 (SNB-19 CNS) 461 nM | GI50 (MALME-3M melanoma) 810 nM | GI50 (MOLT-4 leukemia) 484 nM | GI50 (SK-OV-3 ovarian) 619 nM | GI50 (BT-549 breast) 1180 nM | GI50 (SK-MEL-28 melanoma) 3840 nM | GI50 (HOP-92 NSCLC) 5260 nM | GI50 (HCC-2998 colon) 547 nM | GI50 (A549 NSCLC) 571 nM | GI50 (HOP-62 NSCLC) 513 nM | GI50 (LOX IMVI melanoma) 1520 nM | GI50 (UO-31 renal) 843 nM | GI50 (SF-268 CNS) 1260 nM | GI50 (RPMI-8226 leukemia) 435 nM
> 42700 nM: TGI (RPMI-8226 leukemia)
579 nM: TGI (RXF 393 renal)
674 nM: TGI (SF-539 CNS)
642 nM: TGI (HL-60(TB) leukemia)
